According to ChEMBL document CHEMBL1201862, “PubChem BioAssay data set” (2004):
Active and inactive are the calls of the source.

How the values were obtained:
[1] = target: T1, Serine/threonine-protein phosphatase (Candida dubliniensis (strain CD36 / CBS 7987 / NCPF 3949 / NRRLY-17841) (Yeast), UniProt B9W6M3); test: calcineurin pathway inhibitors in yeast reporter, dose response, S. cerevisiae, CDRE-lacZ, luminescence, secondary (AID 2388); format: functional, cell-based;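 also: yeast reporter cells carrying a calcineurin-responsive lacZ construct stimulated with calcium chloride; luminescent beta-galactosidase reporter signal in whole cells rather than isolated phosphatase activity; potency for inhibition where a drop in reporter signal means calcineurin blockade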
T1 sequence (B9W6M3 whole entry): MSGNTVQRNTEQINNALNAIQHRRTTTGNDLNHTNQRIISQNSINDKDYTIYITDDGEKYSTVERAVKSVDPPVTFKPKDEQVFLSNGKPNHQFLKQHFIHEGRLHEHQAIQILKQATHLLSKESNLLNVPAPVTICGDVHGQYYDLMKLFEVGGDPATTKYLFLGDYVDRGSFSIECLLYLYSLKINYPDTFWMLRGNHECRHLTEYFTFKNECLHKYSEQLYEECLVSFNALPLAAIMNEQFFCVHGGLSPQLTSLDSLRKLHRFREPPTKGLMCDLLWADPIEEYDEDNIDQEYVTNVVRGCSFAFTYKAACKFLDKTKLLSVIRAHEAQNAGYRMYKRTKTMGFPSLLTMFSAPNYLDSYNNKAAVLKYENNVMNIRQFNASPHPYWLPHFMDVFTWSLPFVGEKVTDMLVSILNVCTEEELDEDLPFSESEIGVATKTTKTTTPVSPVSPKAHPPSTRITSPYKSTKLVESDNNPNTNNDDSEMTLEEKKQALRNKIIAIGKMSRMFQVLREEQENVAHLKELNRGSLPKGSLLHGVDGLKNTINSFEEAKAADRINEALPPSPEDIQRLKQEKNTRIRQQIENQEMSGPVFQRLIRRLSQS

[2] = NIH-3T3 fibroblast cytotoxicity, dose response, cytotoxicity control, cell-based, fluorescence, Alamar Blue, secondary assay (AID 2327); format: functional;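 also: NIH-3T3 mouse fibroblasts cultured with fluconazole at 8 µg/mL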
[3] = C. albicans growth with fluconazole, confirmation, fluorescence, retest (AID 2467); format: functional, cell-based
[4] = target: ATP-dependent molecular chaperone HSP82 (Candida albicans (strain WO-1) (Yeast), UniProt C4YTQ8); test: loss of DOC-induced GRE-beta-galactosidase reporter signal, dose response, Hsp90 inhibitor project, S. cerevisiae, luminescence (AID 2400); format: functional, cell-based;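 also: beta-galactosidase luminescence from glucocorticoid response element reporter as proxy for Hsp90 function; inhibitor potency where signal loss means Hsp90 inhibition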
Sequence of ATP-dependent molecular chaperone HSP82 (C4YTQ8 whole entry): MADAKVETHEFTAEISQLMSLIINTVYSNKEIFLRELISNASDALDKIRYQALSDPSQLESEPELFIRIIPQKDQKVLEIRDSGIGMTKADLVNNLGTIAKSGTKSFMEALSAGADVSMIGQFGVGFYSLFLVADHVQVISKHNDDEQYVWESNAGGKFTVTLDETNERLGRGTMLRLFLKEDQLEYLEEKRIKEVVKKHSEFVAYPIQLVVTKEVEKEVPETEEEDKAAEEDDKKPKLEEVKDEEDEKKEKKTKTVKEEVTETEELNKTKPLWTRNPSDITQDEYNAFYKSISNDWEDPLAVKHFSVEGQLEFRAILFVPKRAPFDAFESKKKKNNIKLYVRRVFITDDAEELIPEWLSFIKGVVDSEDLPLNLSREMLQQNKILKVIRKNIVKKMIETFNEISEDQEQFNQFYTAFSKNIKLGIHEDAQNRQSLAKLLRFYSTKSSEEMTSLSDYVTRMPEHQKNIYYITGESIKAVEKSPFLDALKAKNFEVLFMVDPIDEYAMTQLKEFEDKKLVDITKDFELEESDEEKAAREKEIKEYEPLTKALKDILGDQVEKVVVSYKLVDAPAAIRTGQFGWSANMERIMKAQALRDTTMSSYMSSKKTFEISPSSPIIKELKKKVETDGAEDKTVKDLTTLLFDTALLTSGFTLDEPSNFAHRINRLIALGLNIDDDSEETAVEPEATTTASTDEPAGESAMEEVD

HEK293 [5] = test: cells; details: Homo sapiens
[6] = Shn3 3'UTR reporter inhibitors, dose response, cell-based, Clone20 osteoblasts, firefly luciferase, cherry-picked (AID 624132); format: functional;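 also: firefly luciferase luminescence from reporter carrying the Shn3 3'UTR in osteoblasts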
HEK293 [7] = test: cells; details: Homo sapiens; remark: listed apart in the source
[8] = HepG2 cell cytotoxicity, dose response, cytotoxicity control for Shn3 inhibitor project, CellTiter-Glo, cherry-picked (AID 624134); format: functional, cell-based
[9] = control 3'UTR Renilla luciferase suppression, dose response, counter-screen for Shn3 inhibitor project, cell-based, Clone20-Shn3RL, cherry-picked (AID 624133); format: functional
[10] = target: T2, DNA repair protein RAD52 homolog (Homo sapiens, UniProt P43351); format: functional, biochemical
T2 sequence (P43351 whole entry): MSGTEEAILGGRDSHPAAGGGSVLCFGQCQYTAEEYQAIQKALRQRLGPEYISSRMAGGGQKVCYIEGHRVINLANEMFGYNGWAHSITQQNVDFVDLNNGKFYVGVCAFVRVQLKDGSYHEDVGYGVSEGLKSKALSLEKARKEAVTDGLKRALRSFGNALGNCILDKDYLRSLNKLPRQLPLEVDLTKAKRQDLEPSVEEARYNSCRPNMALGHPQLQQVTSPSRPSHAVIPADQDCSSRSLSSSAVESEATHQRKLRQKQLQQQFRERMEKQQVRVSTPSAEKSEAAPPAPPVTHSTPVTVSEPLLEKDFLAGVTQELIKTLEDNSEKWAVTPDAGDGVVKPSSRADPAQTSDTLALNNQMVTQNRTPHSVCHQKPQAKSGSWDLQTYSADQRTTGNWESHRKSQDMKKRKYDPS

Escherichia coli = test: microbe, parasite or virus in culture
Streptokinase A = target: T3, Streptokinase A (Streptococcus pyogenes serotype M1, UniProt P10520); test: S. pyogenes streptokinase expression inhibitors, potency, dose response, plasminogen activation absorbance, OD405 (AID 1914); format: functional, Streptococcus pyogenes M1 GAS;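 also: secreted streptokinase activity via plasminogen activation per viability signal from cell pellet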
T3 sequence (P10520 whole entry): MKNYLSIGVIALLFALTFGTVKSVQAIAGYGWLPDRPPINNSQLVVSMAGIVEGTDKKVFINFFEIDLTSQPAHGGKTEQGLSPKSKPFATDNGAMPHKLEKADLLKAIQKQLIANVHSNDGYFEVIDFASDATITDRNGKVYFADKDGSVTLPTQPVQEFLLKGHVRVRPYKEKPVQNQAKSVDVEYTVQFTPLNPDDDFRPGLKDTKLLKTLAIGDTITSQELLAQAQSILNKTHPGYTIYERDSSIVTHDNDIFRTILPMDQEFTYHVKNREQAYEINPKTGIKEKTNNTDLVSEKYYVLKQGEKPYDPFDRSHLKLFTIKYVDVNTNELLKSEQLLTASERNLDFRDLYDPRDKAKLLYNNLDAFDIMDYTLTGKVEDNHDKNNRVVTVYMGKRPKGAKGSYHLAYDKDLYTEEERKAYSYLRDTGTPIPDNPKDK

Streptococcus = test: Group A Streptococcus viability loss, dose response, counter-screen for streptokinase expression inhibitor project, luminescence, BacTiterGlo (AID 1915); format: functional, organism-based;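 also: potency for reduction of bacterial viability or growth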
[11] = test system: Streptococcus sp. 'group A'; test: growth inhibition of control SK(-) GAS strain, dose response, counter-screen for streptokinase expression inhibitor project, luminescence, kanamycin, BacTiterGlo, confirmation (AID 1900); format: functional, organism-based

## CC(CC(=O)Nc1ncc([N+](=O)[O-])s1)c1ccccc1 (stereo unspecified)
[1]
  EC50: > 180 µM (inactive)
[2]
  EC50: > 150 µM (inactive)
[3]
  EC50: 0.76 µM (active)
[4]
  EC50: > 160 µM (inactive)

## CN(C)CCNC(=O)c1cccc2nc3cccc(F)c3nc12
HEK293 [5]
  EC50: > 59.6 µM (inactive)
[6]
  AC50: 13.7 µM (active)
HEK293 [7]
  EC50: > 59.6 µM (inactive)
[8]
  AC50: 4.69 µM (active)
[9]
  AC50: 23.8 µM (active)
[10]
  AC50: 4.63 µM (active)

## CCN(CC)S(=O)(=O)c1cc(NC(=O)CSCc2c(C)noc2C)ccc1C
HEK293 [5]
  EC50: > 59.6 µM (inactive)
HEK293 [7]
  EC50: > 59.6 µM (inactive)

## Cc1cc(-c2c(C)[nH]n(-c3ccc(Cl)cc3)c2=O)n(-c2ccc(Cl)cc2)n1
Escherichia coli
  AC50: 46.2 µM (active)
Streptokinase A
  EC50: > 150 µM (not active)
Streptococcus
  EC50: 62.8 µM (active)
[11]
  EC50: 17.8 µM (active)
